Experiment: Enzymatic stability of prodrug in rat plasma
Format: in vitro ADME
Conditions: 37° C.
Method: Rat plasma (Pel-Freez® Biologicals, Rogers, Ark.; 36150) was used as obtained from the supplier.
(§1) The enzymatic stability assays for prodrug in CaCo2 S9, rat liver S9, rat plasma, pig pancreatin, and rat colonic was were performed using the following procedure. Ninety (90) μL of lysate is aliquoted to designated tubes on a cluster plates. The lysate was preincubated for 10 min at 37° C. With the exception of the t(0) time point, 10 μL of a 400 μM solution of test compound in 0.1M Tris buffer, pH 7.4 was added to multiple wells representing different incubation times. The samples were incubated at 37° C. At each time point, the reaction was quenched by adding 300 μL of 100% ethanol. The samples were thoroughly mixed, the tubes transferred to a V-bottom plate, and stored at −20° C. For the t(0) time point, the lysate was quenched with 300 μL of ice cold 100% ethanol, thoroughly mixed, 10 μL of 400 μM test compound was added and mixed, and the sample tube transferred to a V-bottom plate and stored at −20° C. For analysis, 180 μL from each sample was transferred to a 96 well V-bottom plate and sealed. After all time points were collected, the plate was centrifuged for 10 min at 5600 rpm at 4° C. One-hundred fifty (150) μL from each well was then transferred to a 96 well round bottom plate. Samples were analyzed using LC/MS/MS to determine the concentrations of prodrug and parent drug.
(§2) LC-MS/MS analysis for MHF was performed using an API 4000 equipped with an Agilent 1100 HPLC and a Leap Technologies autosampler. A HPLC Phenomenex Onyx Monolithic C18 (CHO-7644) column at a temperature of 35° C., flow rate of 2.0 mL/min, injection volume of 30 μL, and a 3 min run time was used. Mobile phase AI was 0.1% formic acid in water and Mobile phase AII was 0.1% formic acid in acetonitrile. The gradient was 98% AI/2% AII at time 0; 98% AI/2% AII at time 0.1 mM; 5% AI/95% AII at time 1.4 mM; 5% AI/95% AII at time 2.2 min; 98% AI/2% AII at time 2.3 mM; and 98% AI/2% AII at time 3.0 min MHF content was determined using negative ion mode (Q1 128.94; Q2 71).

Molecule	T1/2 Parent Prodrug Cleavage (min) rPlasma [min]
Methyl(N-(1,3,4-thiadiazol-2-yl)carbamoyl)methyl(2E)but-2ene-1,4-dioate [Compound 8]	6

Same assay, conditions: 37° C., read-out: T1/2 Parent Prodrug Cleavage (min) rPlasma

Molecule	half-life at 40 µM [min]
CCN(CC)C(=O)COC(=O)/C=C/C(=O)OC [Compound 1, (N,N-Diethylcarbamoyl)methyl methyl (2E)but-2-ene-1,4-dioate]	1
COC(=O)/C=C/C(=O)OCC(=O)NCc1ccccc1 [Compound 2, Methyl [N-benzylcarbamoyl]methyl (2E)but-2-ene-1,4-dioate]	9
COC(=O)/C=C/C(=O)OCC(=O)N1CCOCC1 [Compound 3, Methyl 2-morpholin-4-yl-2-oxoethyl (2E)but-2-ene-1,4-dioate]	1
CCCCNC(=O)COC(=O)/C=C/C(=O)OC [Compound 4, (N-Butylcarbamoyl)methyl methyl (2E)but-2-ene-1,4-dioate]	1
COCCNC(=O)COC(=O)/C=C/C(=O)OC [Compound 5, [N-(2-Methoxyethyl)carbamoyl]methyl methyl (2E)but-2-ene-1,4-dioate]	2
COC(=O)/C=C/C(=O)OCC(=O)N(C)C [Compound 9]	1
COC(=O)/C=C/C(=O)OCC(=O)N(C)OC [Compound 10, (N-Methoxy-N-methylcarbamoyl)methyl methyl (2E) but-2-ene-1,4-dioate]	1

Experiment: pH 8.0 buffer stability
Format: physicochemical
Conditions: 150 mM NaH2PO4 buffer pH 8.0, 60 min, 37° C.
Method: For the pH 8.0 stability studies, 190 μL of 150 mM NaH2PO4 buffer pH 8.0 was added to each sample tube. Ten (10) μL of 20 mM test compound was added to each tube and mixed. The samples were incubated for 60 min at 37° C. Following incubation, the samples were transferred to room temperature and 800 μL of 50% ACN in water was added to each tube. Samples were analyzed using LC/MS/MS to determine the concentrations of prodrug and parent drug.
as §2

Molecule	pH 8.0: Percent DMF or prodrug remaining after 60 minutes [%]
CCN(CC)C(=O)COC(=O)/C=C/C(=O)OC [Compound 1, (N,N-Diethylcarbamoyl)methyl methyl (2E)but-2-ene-1,4-dioate]	63
COC(=O)/C=C/C(=O)OCC(=O)NCc1ccccc1 [Compound 2, Methyl [N-benzylcarbamoyl]methyl (2E)but-2-ene-1,4-dioate]	17
COC(=O)/C=C/C(=O)OCC(=O)N1CCOCC1 [Compound 3, Methyl 2-morpholin-4-yl-2-oxoethyl (2E)but-2-ene-1,4-dioate]	53
CCCCNC(=O)COC(=O)/C=C/C(=O)OC [Compound 4, (N-Butylcarbamoyl)methyl methyl (2E)but-2-ene-1,4-dioate]	40
COCCNC(=O)COC(=O)/C=C/C(=O)OC [Compound 5, [N-(2-Methoxyethyl)carbamoyl]methyl methyl (2E)but-2-ene-1,4-dioate]	53
COC(=O)/C=C/C(=O)OCC(=O)N(C)C [Compound 9]	47
COC(=O)/C=C/C(=O)OCC(=O)N(C)OC [Compound 10, (N-Methoxy-N-methylcarbamoyl)methyl methyl (2E) but-2-ene-1,4-dioate]	42
Methyl(N-(1,3,4-thiadiazol-2-yl)carbamoyl)methyl(2E)but-2ene-1,4-dioate [Compound 8]	141

Experiment: Enzymatic stability of prodrug in CaCo2 S9 homogenate
Format: in vitro ADME
Conditions: CaCo2 S9 0.5 mg/mL, 0.1M Tris pH 7.4, 37° C.
Method: CaCo2 S9 homogenate was prepared using the following procedure. CaCo2 cells were grown in culture for 21 days prior to harvesting. Culture medium was removed from the culture vessel and the monolayer was rinsed twice with 10-15 mL chilled PBS buffer. PBS buffer (7-10 mL) was added to the flask and the cells scraped from the growth surface and transferred to a centrifuge tube. The cells were pelleted by centrifugation at 1500 rpm for 5 min at 4° C. The supernatant was removed and the cell pellet washed with ice cooled PBS and repelleted by centrifugation. The supernatant was removed and the pellet resuspended in cell lysis buffer (0.15M KCl and 10 mM sodium phosphate buffer, pH 7.4). Cells were lysed by sonication at 4° C. using a probe sonicator. The lysed cells were then transferred to vials and centrifuged at 1600 rpm for 10 min at 4° C. to remove intact cells, nuclei, and large cellular debris. The supernatant was removed and transferred to a tube for centrifugation at 8600 rpm for 20 min at 4° C. After centrifugation, the resulting supernatant representing the CaCo2 cell homogenate S9 fraction was carefully removed and aliquoted into vials for storage at −80° C. until the time of use. At the time of use, CaCo2 S9 lysate was diluted to 0.5 mg/mL in 0.1M Tris buffer, pH 7.4.
as §1, §2

Molecule	T1/2 Parent Prodrug Cleavage (min) CaCo2 [min]
Methyl(N-(1,3,4-thiadiazol-2-yl)carbamoyl)methyl(2E)but-2ene-1,4-dioate [Compound 8]	52

Same assay, conditions: human, Caco-2 cell S9 homogenate; CaCo2 S9 0.5 mg/mL, 0.1M Tris pH 7.4, 37° C.; read-out: T1/2 Parent Prodrug Cleavage (min) CaCo2

Molecule	half-life at 40 µM [min]
CCN(CC)C(=O)COC(=O)/C=C/C(=O)OC [Compound 1, (N,N-Diethylcarbamoyl)methyl methyl (2E)but-2-ene-1,4-dioate]	8
COC(=O)/C=C/C(=O)OCC(=O)NCc1ccccc1 [Compound 2, Methyl [N-benzylcarbamoyl]methyl (2E)but-2-ene-1,4-dioate]	4
COC(=O)/C=C/C(=O)OCC(=O)N1CCOCC1 [Compound 3, Methyl 2-morpholin-4-yl-2-oxoethyl (2E)but-2-ene-1,4-dioate]	56
CCCCNC(=O)COC(=O)/C=C/C(=O)OC [Compound 4, (N-Butylcarbamoyl)methyl methyl (2E)but-2-ene-1,4-dioate]	5
COCCNC(=O)COC(=O)/C=C/C(=O)OC [Compound 5, [N-(2-Methoxyethyl)carbamoyl]methyl methyl (2E)but-2-ene-1,4-dioate]	30
COC(=O)/C=C/C(=O)OCC(=O)N(C)C [Compound 9]	8
COC(=O)/C=C/C(=O)OCC(=O)N(C)OC [Compound 10, (N-Methoxy-N-methylcarbamoyl)methyl methyl (2E) but-2-ene-1,4-dioate]	3

Experiment: Enzymatic stability of prodrug in rat liver S9
Format: in vitro ADME
Conditions: rat liver S9 0.5 mg/mL, pH 7.4, 1 mM NADPH, 37° C.
Method: Rat liver S9 (XenoTech, Lenexa, Kans.; R1000.59, 20 mg/mL) was diluted to 0.5 mg mL in 0.1 M potassium phosphate buffer at pH 7.4 and 1 mM NADPH cofactor.
as §1, §2

Molecule	T1/2 Parent Prodrug Cleavage (min) rLiver [min]
Methyl(N-(1,3,4-thiadiazol-2-yl)carbamoyl)methyl(2E)but-2ene-1,4-dioate [Compound 8]	23

Same assay, conditions: rat liver S9 0.5 mg/mL, pH 7.4, 1 mM NADPH, 37° C.; read-out: T1/2 Parent Prodrug Cleavage (min) rLiver

Molecule	half-life at 40 µM [min]
CCN(CC)C(=O)COC(=O)/C=C/C(=O)OC [Compound 1, (N,N-Diethylcarbamoyl)methyl methyl (2E)but-2-ene-1,4-dioate]	2
COC(=O)/C=C/C(=O)OCC(=O)NCc1ccccc1 [Compound 2, Methyl [N-benzylcarbamoyl]methyl (2E)but-2-ene-1,4-dioate]	9
COC(=O)/C=C/C(=O)OCC(=O)N1CCOCC1 [Compound 3, Methyl 2-morpholin-4-yl-2-oxoethyl (2E)but-2-ene-1,4-dioate]	22
CCCCNC(=O)COC(=O)/C=C/C(=O)OC [Compound 4, (N-Butylcarbamoyl)methyl methyl (2E)but-2-ene-1,4-dioate]	2
COCCNC(=O)COC(=O)/C=C/C(=O)OC [Compound 5, [N-(2-Methoxyethyl)carbamoyl]methyl methyl (2E)but-2-ene-1,4-dioate]	10
COC(=O)/C=C/C(=O)OCC(=O)N(C)C [Compound 9]	6
COC(=O)/C=C/C(=O)OCC(=O)N(C)OC [Compound 10, (N-Methoxy-N-methylcarbamoyl)methyl methyl (2E) but-2-ene-1,4-dioate]	1

Experiment: Enzymatic stability of prodrug in rat colonic wash
Format: in vitro ADME
Conditions: pH 7.4; rat colonic wash undiluted, 37° C.; read-out: T1/2 Parent Prodrug Cleavage (min) rColonic Wash
Method: To prepare the rat colonic wash, the colon between the ceacum and rectum was resected from a euthanized rat. Five to 10 mL of PBS pH 7.4 buffer (depending on the weight of the rat) was flushed into the lumen of the large intestine and collected into a 250 mL glass beaker at 0° C. (ice bath). The colonic wash was transferred into 10 mL conical tubes using a 10 mL syringe fitted with a filter. Samples of 0.5 mL colonic wash are stored at −80° C. until the time of use. Colonic was used without dilution.
as §1, §2

Molecule	half-life at 40 µM [min]
CCN(CC)C(=O)COC(=O)/C=C/C(=O)OC [Compound 1, (N,N-Diethylcarbamoyl)methyl methyl (2E)but-2-ene-1,4-dioate]	> 60
COC(=O)/C=C/C(=O)OCC(=O)NCc1ccccc1 [Compound 2, Methyl [N-benzylcarbamoyl]methyl (2E)but-2-ene-1,4-dioate]	25
COC(=O)/C=C/C(=O)OCC(=O)N1CCOCC1 [Compound 3, Methyl 2-morpholin-4-yl-2-oxoethyl (2E)but-2-ene-1,4-dioate]	> 60
CCCCNC(=O)COC(=O)/C=C/C(=O)OC [Compound 4, (N-Butylcarbamoyl)methyl methyl (2E)but-2-ene-1,4-dioate]	33
COCCNC(=O)COC(=O)/C=C/C(=O)OC [Compound 5, [N-(2-Methoxyethyl)carbamoyl]methyl methyl (2E)but-2-ene-1,4-dioate]	> 60
COC(=O)/C=C/C(=O)OCC(=O)N(C)C [Compound 9]	> 60
COC(=O)/C=C/C(=O)OCC(=O)N(C)OC [Compound 10, (N-Methoxy-N-methylcarbamoyl)methyl methyl (2E) but-2-ene-1,4-dioate]	> 60

Same assay, conditions: rat colonic wash undiluted, 37° C.

Molecule	T1/2 Parent Prodrug Cleavage (min) rColonic Wash [min]
Methyl(N-(1,3,4-thiadiazol-2-yl)carbamoyl)methyl(2E)but-2ene-1,4-dioate [Compound 8]	27

Experiment: Enzymatic stability of prodrug in porcine pancreatin
Format: in vitro ADME
Conditions: pig; porcine pancreatin 10 mg/mL, 0.1M Tris pH 7.4, 37° C.; read-out: T1/2 Parent Prodrug Cleavage (min) pPancreatin
Method: Porcine pancreatin (Sigma Aldrich, St. Louis, Mo.; P1625-100G) was diled to 10 mg/mL in 0.1M Tris buffer, pH 7.4.
as §1, §2

Molecule	half-life at 40 µM [min]
CCN(CC)C(=O)COC(=O)/C=C/C(=O)OC [Compound 1, (N,N-Diethylcarbamoyl)methyl methyl (2E)but-2-ene-1,4-dioate]	8
COC(=O)/C=C/C(=O)OCC(=O)NCc1ccccc1 [Compound 2, Methyl [N-benzylcarbamoyl]methyl (2E)but-2-ene-1,4-dioate]	1
COC(=O)/C=C/C(=O)OCC(=O)N1CCOCC1 [Compound 3, Methyl 2-morpholin-4-yl-2-oxoethyl (2E)but-2-ene-1,4-dioate]	8
CCCCNC(=O)COC(=O)/C=C/C(=O)OC [Compound 4, (N-Butylcarbamoyl)methyl methyl (2E)but-2-ene-1,4-dioate]	2
COCCNC(=O)COC(=O)/C=C/C(=O)OC [Compound 5, [N-(2-Methoxyethyl)carbamoyl]methyl methyl (2E)but-2-ene-1,4-dioate]	3
COC(=O)/C=C/C(=O)OCC(=O)N(C)C [Compound 9]	4
COC(=O)/C=C/C(=O)OCC(=O)N(C)OC [Compound 10, (N-Methoxy-N-methylcarbamoyl)methyl methyl (2E) but-2-ene-1,4-dioate]	4

Same assay, conditions: porcine pancreatin 10 mg/mL, 0.1M Tris pH 7.4, 37° C.

Molecule	T1/2 Parent Prodrug Cleavage (min) pPancreatin [min]
Methyl(N-(1,3,4-thiadiazol-2-yl)carbamoyl)methyl(2E)but-2ene-1,4-dioate [Compound 8]	15

Experiment: not given
Conditions: not given

Molecule	melting point [°C]
COC(=O)/C=C/C(=O)OCC(=O)N1CCOCC1 [Compound 3, Methyl 2-morpholin-4-yl-2-oxoethyl (2E)but-2-ene-1,4-dioate]	124 to 126
COCCN(CCOC)C(=O)COC(=O)/C=C/C(=O)OC [Compound 11]	79 to 82
COC(=O)/C=C/C(=O)OC(C)C(=O)N1CCOCC1 (stereo not shown) [Compound 28, Methyl 1-methyl-2-morpholin-4-yl-2-oxoethyl (2E)but-2-ene-1,4-dioate]	70 to 73
COC(=O)/C=C/C(=O)O[C@@H](C)C(=O)N1CCOCC1 [Compound 31, (1S)-1-Methyl-2-morpholin-4-yl-2-oxoethyl methyl (2E)but-2-ene-1,4-dioate]	79 to 82

Reference: patent US8785443B2, “Methods of using prodrugs of methyl hydrogen fumarate and pharmaceutical compositions thereof” (XenoPort, Inc., priority 2008, dated 2014)
